These are literature values, as cited in patent US7022698B2, “Pharmaceutical compositions containing new polymorphic forms of olanzapine and uses thereof” (U & I Pharmaceuticals, Ltd., priority 1999, dated 2006).

Where two headings read alike, the source gives them in different places.

Data set [1] deals with dopamine receptors (D1 to D5).
The test system of data set [2] is serotonin (5-HT) receptors.
For data set [3], the system named is muscarinic cholinergic receptor.
In data set [4] the test system is patients with schizophrenia. The settings on record: 10 mg/day, in comparison with olanzapine 1 mg/day or placebo.
Data set [5] has as its system schizophrenia and schizoaffecive and schizophreniform disorders. As to conditions: for Montgomery-Asberg Depression Rating Scale (MADRS) total score, baseline to endpoint decline: 6-week trial, p=0.001.
In data set [6] the test system is inpatients with a diagnosis of psychotic disorders.
The test system of data set [7] is inpatients with psychotic depression.
The subject of data set [8] is psychotic mood disorders patients and schizophrenic patients.
For another data set, the system named is bipolar type I patients. The settings on record: mean dose 13.8 mg/day.
In data set [9] the test system is patients with Alzheimer's disease (AD).
Data set [10] has as its system patients with Acute Mania. As to conditions: 5–20 mg/day.

`Cc1cc2c(s1)Nc1ccccc1N=C2N1CCN(C)CC1` [olanzapine, 2-methyl-4-(4-methyl-1-piperazinyl)-10H-thieno-[2,3b][1,5] benzodiazepine]: the “mesolimbic and mesocortical selectivity” value was “mesolimbic and mesocortical selectivity”. The “affinity for dopaminic receptors” value in [1] is recorded as “nanomolar affinity”. The “binding selectivity among dopamine receptors” value in [1] (D1 to D5) was “relatively non-selective binding”. The “affinity for serotonergic receptors” value in [2] is recorded as “nanomolar affinity”. The “inhibition of 5-HT receptors” value in [2] (5-HT2A, 5-HT2B, 5-HT2C, and 5-HT6 receptors) is given as “potent inhibitor”. In addition, in the data set with α1-adrenergic receptors, the “affinity for α1-adrenergic receptors” value is “nanomolar affinity” and the “inhibition of α-adrenergic receptor” value is “potent inhibitor”. The “affinity for muscarinic receptors” value in [3] is recorded as “nanomolar affinity”. Besides, the “inhibition of muscarinic cholinergic receptor” value in data set [3] (all five subtypes) is reported as “potent inhibitor”. Moreover, the “Hamilton Rating Scale for Depression scores” value in [4] is on record as “significant reduction”. Further, the “Montgomery-Asberg Depression Rating Scale (MADRS) total score, baseline to endpoint decline” value in data set [5] is on record as 6 point. Besides, in [5] (subanalysis, schizoaffective patients currently depressed, p=0.002), the “reduction of the MADRS scores” value is listed as “superior to haloperidol”. In addition, in data set [5] (subanalysis, schizoaffective patients currently manic, p=0.25), the “decrease of Brief Psychiatric Rating Scale (BPRS) mania score” value is on record as “as effective as haloperidol”. For the same molecule, the overall response rate in data set [6] (all patients) is on record as 62%. The response rate in data set [6] (bipolar disorder patients) is reported as 83%. The response rate in data set [7] is recorded as 67%. Moreover, in data set [8] (psychotic mood disorders group, psychological impairment, violence, and social skills subscales), the “K Axis V subscale scores, baseline to follow-up” value is “statistically significant change”. Further, the “patients remaining hospitalized at follow-up” value in [8] (psychotic mood disorders patient group (24/32)) is “Seventy-five”. For the same molecule, the “change on the CGI and GAF-EQ” value in data set [8] (psychotic mood disorders patients (N=32) and schizophrenic patients (N=18) who continued olanzapine) is “statistically significant change toward improvement”. The “K Axis V subscale scores, baseline to follow-up” value in data set [8] (schizophrenic group, only on the violence subscale) was “significant change in score only on the violence subscale”. Besides, the “patients remaining hospitalized at follow-up” value in data set [8] (schizophrenic patients (18/18)) is 100%. Further, in the data set with bipolar type I patients (113 patients), the “HAM-D score at baseline” value is reported as 12.2 and the “YMRS score at baseline” value is 25.5. For the same molecule, in the data set on bipolar type I patients (average 6.7 months, p<0.001), the “HAM-D score on follow-up” value was 6.5 and the “YMRS score on follow-up” value is on record as 7.5. For the same molecule, the EPS result in the data set on bipolar type I patients is listed as “Few EPS were noted”. Also, in data set [9] (5-mg/day dose), the “efficacy in reducing psychotic symptoms, parent study” value is “most efficacious” and the “safety, parent study” value was “safest”. The “efficacy in reducing psychotic symptoms, parent study” value in data set [9] (10-mg/day dose, relative to placebo) was “significant efficacy”. Besides, in data set [9] (15-mg/day dose), the “expression of psychotic symptoms, parent study” value was “failed to separate from the placebo group” and the “safety, parent study” value is reported as “less tolerated safety profile”. Moreover, the “emergence of psychotic symptoms compared to placebo” value in [9] (possible AD with agitation/aggression and no or minimal hallucinations and/or delusions) is “significantly lower emergence of psychotic symptoms”. Moreover, the “percentage of patients who discontinued treatment because of lack of efficacy” value in [10] (p=0.02 vs placebo) is recorded as 28.6%. Further, in [10] (responder analysis), the “patients with an improvement of 50% or more in Young Mania Rating Scale total score” value was 48.6%.

For the molecule `O=C(CCCN1CCC(O)(c2ccc(Cl)cc2)CC1)c1ccc(F)cc1` [haloperidol], the “Montgomery-Asberg Depression Rating Scale (MADRS) total score, baseline to endpoint decline” value in data set [5] is reported as 3 point.
